EC50 data for 25 compounds are collected here from patent EP2697230B1, “COMPOUNDS FOR THE TREATMENT OF HEPATITIS C” (priority 2011, dated 2012).

Each structure is given as a SMILES string. Where two headings read alike, the source gives them in different places.

This assay deals with HCV pseudoparticles, genotype 1a HCV E1 and E2 envelope (H77C isolate). The experiment in a line: HCV pseudoparticle infection assay (luciferase reporter, Huh7 cells). Format: cell-based. On the technique in general: A reporter such as luciferase makes a cellular process visible.
Where [1] appears, read: Hepatitis C virus, Huh-7, 48 h, read-out: EC50 (nM) 1a (H77C), class symbol, HCV pseudoparticles genotype 1a (H77C), luciferase 2 days after infection.
Setting [2] is: Hepatitis C virus, Huh-7, 48 h, read-out: EC50 (nM) 1a (H77C), numeric value, HCV pseudoparticles genotype 1a (H77C), luciferase 2 days after infection.

The EC50 is the concentration giving half of the maximal effect. `O=C1NCc2ccc(cc2)CNc2nc(nc(OCC(F)(F)F)n2)Nc2ccc(cc2)CNC(=O)Nc2cccc(c2)N1` [Example 0051]: under setting [1], the EC50 lay in the range of 100 to 1000 nM.
In the case of `CC(C)C(=O)N1CCCCOc2ccc(cc2)CNc2nc(nc(OCC(F)(F)F)n2)Nc2ccc(cc2)C(=O)NCCC1` [Example 4020], under setting [1], the concentration giving a half-maximal response (EC50) lay in the range of 0.1 to 100 nM.
Consider `CC1(C)CNC(=O)c2ccc(cc2)Nc2nc(nc(OCC(F)(F)F)n2)NCc2ccc(cc2)OCCCN(C(=O)OC(C)(C)C)C1` [Example 6036], for which the half-maximal effective concentration (EC50) under setting [1] fell in the range of 0.1 to 100 nM.
In the case of `CCCOC(=O)N1CCCCCCCCNc2nc(nc(OCC(F)(F)F)n2)Nc2ccc(cc2)C(=O)NCCC1` [Example 9004], the EC50 under setting [1] was in the range of 0.1 to 100 nM.
Take `O=C1NCc2ccc(cc2)Nc2nc(nc(OCC(F)(F)F)n2)NCc2cccc(c2)CNC(=O)OCCOCCOCCO1` [Example 0068]: the EC50 under setting [1] lay in the range of 100 to 1000 nM.
`COC(=O)N1CCCCOc2ccc(cc2)CNc2nc(nc(OCC(F)(F)F)n2)Nc2ccc(cc2)C(=O)NCCC1` [Example 4023]: the EC50 under setting [1] was 0.1 to 100 nM.
On the same count and under the same terms, for `CN(C)CCCN1CCCNC(=O)c2ccc(cc2)Nc2nc(nc(OCC(F)(F)F)n2)Nc2ccc(cc2)C1=O` [Example 0023] the value was 100 to 1000 nM.
For `CCNC(=O)N1CCCCNC(=O)c2ccc(cc2)Nc2nc(nc(OCC(F)(F)F)n2)NCc2ccc(cc2)OCC1` [Example 4007], the concentration for a half-maximal effect (EC50) under setting [1] fell in the range of 0.1 to 100 nM.
Turning to `O=C1NCCCNCCCCCCCCNc2nc(nc(OCC(F)(F)F)n2)Nc2ccc1cc2` [Example 9001], the EC50 is, setting by setting: (class symbol, HCV pseudoparticles genotype 1a (H77C), luciferase 2 days after infection, read-out: EC50 (nM) 1a (H77C)) 100 to 1000 nM; (numeric value, HCV pseudoparticles genotype 1a (H77C), luciferase 2 days after infection, read-out: EC50 (nM) 1a (H77C)) 243 nM.
Regarding `CC1(C)C(=O)NCc2ccc(cc2)CNc2nc(nc(OCC(F)(F)F)n2)Nc2ccc(cc2)CNC1=O` [Example 0071], the EC50 under setting [1] was in the range of 100 to 1000 nM.
On to `COCC(=O)N1CCCCNC(=O)c2ccc(cc2)Nc2nc(nc(OCC(F)(F)F)n2)NCc2ccc(cc2)OCC1` [Example 4035], for which the EC50 by setting is: under setting [1], 0.1 to 100 nM; under setting [2], 4.37 nM.
`O=C1NCc2ccc(cc2)Nc2nc(nc(OCC(F)(F)F)n2)NCc2cccc(c2)CNC(=O)NC2CCC(CC2)CC2CCC(CC2)N1` [Example 0054]: the EC50 under setting [1] is 1000 to 5000 nM and the EC50 under setting [2] worked out at 5210 nM.
As for `CCNC(=O)N1CCCCOc2ccc(cc2)CNc2nc(nc(OCC(F)(F)F)n2)Nc2ccc(cc2)C(=O)NCCC1` [Example 4031], the EC50 under setting [1] was in the range of 0.1 to 100 nM.
Still for that read-out and setting: for `CN1CCCOc2ccc(cc2)CNc2nc(nc(OCC(F)(F)F)n2)Nc2ccc(cc2)C(=O)NCC(C)(C)C1` [Example 6040] the value was 0.1 to 100 nM.
Take `CC(C)(C)C(=O)N1CCCCNC(=O)c2ccc(cc2)Nc2nc(nc(OCC(F)(F)F)n2)NCc2ccc(cc2)OCC1` [Example 4005]: the EC50 under setting [1] was 0.1 to 100 nM.
As for `O=C1NCCCCNCCOc2ccc(cc2)CNC2=N/C(=N\c3ccc1cc3)N=C(OCC(F)(F)F)N2` [Example 4001, (2E)-5-(2,2,2-trifluoroethoxy)-14-oxa-2,4,6,8,17,22,31-heptaazatetracyclo[22.2.2.2∼10,13∼.1∼3,7∼]hentriaconta-1(26),2,4,7(31),10,12,24,27,29-nonaen-23-one], the EC50 under setting [1] is 0.1 to 100 nM.
Take `O=C1CNC(=O)CNC(=O)c2ccc(cc2)Nc2nc(nc(OCC(F)(F)F)n2)NCc2ccc(cc2)NC(=O)CN1` [Example 3003]: under setting [1], the EC50 fell in the range of 100 to 1000 nM.
For the compound `O=C1CCCC(=O)NCc2ccc(cc2)Nc2nc(nc(OCC(F)(F)F)n2)NCc2ccc(cc2)CN1` [Example 0061], under setting [1], the EC50 is 100 to 1000 nM.
Still for that read-out and setting: for `CC(C)(C)OC(=O)N1CCCCNC(=O)c2ccc(cc2)Nc2nc(nc(OCC(F)(F)F)n2)NC2(CC2)c2ccc(cc2)OCCC1` [Example 5006] the value was 0.1 to 100 nM; for `CC1(C)NC(=O)NCc2ccc(cc2)CNc2nc(nc(OCC(F)(F)F)n2)Nc2ccc(cc2)CNC(=O)NC(C)(C)c2cccc1c2` [Example 0057], 100 to 1000 nM; for `CC(C)(C)NC(=O)N1CCCCCCCCNc2nc(nc(OCC(F)(F)F)n2)Nc2ccc(cc2)C(=O)NCCC1` [Example 9008], 0.1 to 100 nM.
With `CC(C)OC(=O)N1CCCCNC(=O)c2ccc(cc2)Nc2nc(nc(OCC(F)(F)F)n2)NCc2ccc(cc2)OCC1` [Example 4015], under setting [1], the EC50 is 0.1 to 100 nM.
For the compound `CC(=O)N1CCCCNC(=O)c2ccc(cc2)Nc2nc(nc(OCC(F)(F)F)n2)NCc2ccc(cc2)OCC1` [Example 4002], the EC50 under setting [1] is 100 to 1000 nM and the concentration for a half-maximal effect (EC50) under setting [2] was found to be 105 nM.
As to `CNC(=O)N1CCCCOc2ccc(cc2)CNc2nc(nc(OCC(F)(F)F)n2)Nc2ccc(cc2)C(=O)NCCC1` [Example 4030], the concentration giving a half-maximal response (EC50) under setting [1] lay in the range of 0.1 to 100 nM.
`O=C1CCCCNC(=O)c2ccc(cc2)Nc2nc(nc(OCC(F)(F)F)n2)NCc2ccc(cc2)OC/C=C/S(=O)(=O)N1` [Example 3012]: the concentration for a half-maximal effect (EC50) was 100 to 1000 nM under setting [1] and 275 nM under setting [2].
